Measurements from patent US10259824B2, “Complement C3d-binding compounds” (The Regents of the University of California, priority 2015, dated 2019).

Columns and labels:
[1] = Absorption and fluorescence spectroscopy / fluorescence quantum yield; format: physicochemical; conditions: for Emission Peak / Excitation Peak / Quantum Yield: acetonitrile
Experimental: Absorption and fluorescence spectroscopy. Stock solutions of C3d-binding compounds (in DMSO) were diluted in spectroscopic grade acetonitrile (Fisher Scientific). The concentration of each sample was adjusted such that the absorption at the excitation wavelength was below 0.2, after correcting with blank acetonitrile solutions containing the same concentration of DMSO as the measured samples. The UV/visible absorption spectra (260-700 nm) were recorded on a JASCO V-670 spectrophotometer (Tokyo, Japan), using quartz cuvettes (1.0 cm path length, 3.0 ml total volume). The emission spectra were collected with a FluoroLog-3 spectrofluorometer (Horiba-Jobin-Yvon, Edison, N.J., USA). All samples were purged with argon prior to the measurements and all measurements were performed at room temperature.
Fluorescence quantum yield measurements. Fluorescence quantum yield values for the small molecules were calculated using one or more standard quantum yield fluorophores. Values were calculated according to Eq. 1.
where R and S subscripts denote reference compound and sample, respectively, Φfl is quantum yield, In is the total integrated fluorescence spectrum intensity obtained from integration of the emission spectra, An is sample absorbance at the excitation wavelength, and nn is the refractive index of the solvent. Reference compounds used for calculation included naphthalene (ΦR=0.23 for EtOH), anthracene (ΦR=0.27 for EtOH), and coumarin 1 (ΦR=0.73 for EtOH). Standard molecule quantum yield measurements were performed in acetonitrile, and solvent-dependent measurements were performed in spectroscopic grade methanol, ethanol, 1-propanol, 1-butanol, ethylene glycol, glycerol, and phosphate buffered saline.
To test the fluorescence dependence on the media viscosity, a protic media was used, i.e., an aqueous buffer and six alcohols with widely varying viscosities.

[2] = molecular target: T1, C3d (Homo sapiens, UniProt P01024); assay: Microscale thermophoresis direct binding; conditions: 10 nM NT647-labeled C3d, MST buffer with 5% DMSO
T1 construct: Further cleavage events yield C3d (the terminal cleavage product of C3); purchased Complement Technology, Inc
Experimental: Microscale thermophoresis. Direct binding of molecules was assayed using a Monolith NT.115 (NanoTemper Technologies GmbH). Purified C3d (Complement Technology, Inc.) was labeled with NT647 dye using the kit from NanoTemper Technologies, and dissolved to 10 nM in MST buffer (50 mM Tris-HCl, 150 mM NaCl, 10 mM MgCl2, 0.05% Tween 20) containing 5% DMSO. A dilution series of each molecule was prepared in MST buffer containing 5% DMSO, and preincubated with 10 nM NT647-labeled C3d for 10 minutes at room temperature in the dark. Samples were loaded into hydrophilic capillary tubes, and measurements were obtained. For each molecule, reported KD values and binding curves represent results from three independent experiments.
Experimental evaluation of C3d binding. In order to validate the hits from vHTS, binding of 49 selected compounds were measured using microscale thermophoresis. All molecules were tested in a concentration-dependent manner; starting at a concentration of 200 μM (most molecules were poorly soluble in aqueous solution above this concentration). Ten molecules were identified that bound to C3d, with binding affinities (KD) ranging between 25-500 μM. The molecular structures and binding curves for top molecules are shown in FIG. 6, and other binding compounds are shown in FIG. 9.
Microscale Thermophoresis: Direct binding of a small number of selected molecules was tested using microscale thermophoresis. […] We used Efb, a protein secreted from Staphylococcus aureus that binds to C3d, as a positive control for binding (KD=3 nM) (see FIG. 11).

[3] = molecular target: T2, C3d-Ecb interaction (Homo sapiens, UniProt P01024); assay: Competitive binding ELISA, C3d-Ecb; set-up: species or system Staphylococcus aureus; conditions: plates coated with Ecb
T2 construct: Further cleavage events yield C3d (the terminal cleavage product of C3)
Experimental: (§1) Competitive binding ELISA: 50 molecules selected from virtual screening were tested for competitive binding against C3d and its interactions with endogenous protein CR2 and bacterial protein Ecb (homolog to Efb) from Staphylococcus aureus. ELISA plates were coated with CR2 or Ecb for 1 hour at 37° C. Plates were washed and blocked, then incubated with serial dilutions of C3d, with and without test molecules. Plates were incubated with a mouse monoclonal antibody against C3d, followed by a horseradish peroxidase-labeled anti-mouse IgG antibody. The amount of labeled antibody (and in turn, C3d) bound was detected via reaction with a substrate solution, followed by spectrophotometric measurement.

[4] = molecular target: T3, C3d-CR2 interaction (Homo sapiens, UniProt P01024); assay: Competitive binding ELISA, C3d-CR2; conditions: plates coated with CR2
T3 construct: Further cleavage events yield C3d (the terminal cleavage product of C3)
Experimental: as §1

[5] = molecular target: T1, C3d; assay: Fluorescence of molecules in the presence of C3d; conditions: subsaturating concentrations of C3d
Experimental: The fluorescence properties of topperforming molecules in the presence of C3d were also evaluated. Often, when small molecule fluorophores bind to their targets, fluorescence may be quenched, an undesirable property for potential diagnostic molecules. […] Remarkably, Mol4 underwent drastic fluorescence enhancement in the presence of C3d, with up to 5-fold higher fluorescence at subsaturating concentrations of C3d (FIG. 14).

[6] = for EtOH; standard fluorophore; cited from earlier work
[7] = aqueous buffer and six alcohols

T3 sequence (P01024 1002-1303 limits assumed): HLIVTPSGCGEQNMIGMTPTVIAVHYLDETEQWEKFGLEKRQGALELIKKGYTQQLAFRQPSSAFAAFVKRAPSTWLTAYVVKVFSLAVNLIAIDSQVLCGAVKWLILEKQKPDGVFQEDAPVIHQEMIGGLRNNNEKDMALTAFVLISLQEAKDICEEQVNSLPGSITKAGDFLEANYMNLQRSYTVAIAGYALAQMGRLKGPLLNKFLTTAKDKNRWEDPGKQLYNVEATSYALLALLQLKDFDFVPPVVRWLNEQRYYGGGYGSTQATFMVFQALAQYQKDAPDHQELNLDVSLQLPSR
T2 sequence (P01024 1002-1303 limits assumed): as above
T1 sequence (P01024 1002-1303 limits assumed): as above

Compound	Emission Peak [1] [nm]	Excitation Peak [1]	Quantum Yield [1]	Kd [2] [µM]	further results
O=C(Nc1cccc(-c2cc3ccccc3[nH]2)c1)C1CCN(C(=O)C2CC23CCC3)CC1 (stereo not shown) [Mol 4]	380	315 nm	0.560	29 ± 8	
O=C(Nc1nc2ccccc2[nH]1)c1ccc(CNS(=O)(=O)c2ccc(F)c(F)c2F)cc1 [Mol 11]	405	310 nm	0.001	45 ± 13	
Cc1c(-c2ccc(F)cc2)[nH]c2ccc(CNC(=O)c3cc(=O)[nH]c(=O)[nH]3)cc12 [Mol 16]	385	310 nm	0.002	27 ± 5	
C[C@@H](Oc1ccc2[nH]c3ccccc3c(=O)c2c1)C(=O)NC(=O)NC12CC3CC(CC(C3)C1)C2 [Mol 17]	500	390/405	0.984	116 ± 41	
CC1Sc2ccc(C(=O)NNC(=O)c3cc(-c4ccco4)nc4ccccc34)cc2NC1=O (stereo not shown) [Mol 22]	455	355 nm	0.044	183 ± 81	
Cc1ccc(NC(=O)CSc2nnc3ccc(C(=O)Nc4cccc(F)c4)cn23)c(C)c1 [Mol 35]	460	275 nm	0.001	417 ± 171	inhibition of C3d-Ecb interaction [3]: inhibit; inhibition of C3d-CR2 interaction [4]: inhibit
O=C(Cc1cccc(F)c1)Nc1ccc(N2CCC(NCc3ccc4ncccc4c3)CC2)cc1 [Mol 36]	425	320 nm	0.017	132 ± 28	
O=C(NC1CCCc2ccccc21)c1ccc(CN2CCN(CC=Cc3ccccc3)CC2)[nH]c1=O (stereo not shown) [Mol 42]	390	335 nm	0.011	45 ± 15	
O=C(Nc1ccc(C(=O)N2CCN(Cc3nc4sc5c(c4c(=O)[nH]3)CCCC5)CC2)s1)C1CC1 [Mol 50]				77	
O=C(Nc1cccc(-c2cc3ccccc3[nH]2)c1)C1CCN(C(=O)C2CC23CCC3)CC1 (stereo not shown) [Mol B4]					fluorescence enhancement in the presence of C3d [5]: up to 5 fold
Cc1c(-c2ccc(F)cc2)[nH]c2ccc(CNC(=O)c3cc(=O)[nH]c(=O)[nH]3)cc12 [Mol B16]					dependence of Φfl on solvent polarity [1, 7]: does not exhibit any dependence on solvent polarity; emission quantum yield at high media viscosity ([1]; media viscosity about 1,000 cP, protic media): ~0.015; emission quantum yield at low media viscosity ([1]; media viscosity about <1 cP, protic media): about 0.002
C[C@@H](Oc1ccc2[nH]c3ccccc3c(=O)c2c1)C(=O)NC(=O)NC12CC3CC(CC(C3)C1)C2 [Mol B17]					Quantum Yield ([1]; listed as Mol17): close to unity
CC1Sc2ccc(C(=O)NNC(=O)c3cc(-c4ccco4)nc4ccccc34)cc2NC1=O (stereo not shown) [Mol B22]					inhibition of C3d-Ecb interaction [3]: inhibit; inhibition of C3d-CR2 interaction [4]: inhibit
O=C(NC1CCCc2ccccc21)c1ccc(CN2CCN(CC=Cc3ccccc3)CC2)[nH]c1=O (stereo not shown) [Mol B42]					dependence of Φfl on media viscosity [1, 7]: does not manifest viscosity dependence; dependence of Φfl on solvent polarity [1, 7]: about an order of magnitude increase in Φfl
Cc1ccc(NC(=O)Cn2nnc(C(=O)Nc3ccc(C)cc3C)c2N)c(C)c1 [Mol B47]					inhibition of C3d-Ecb interaction [3]: inhibits; inhibition of C3d-CR2 interaction [4]: only inhibits the C3d-Ecb interaction
c1ccc2cc3ccccc3cc2c1 [anthracene]					reference quantum yield ΦR [6]: 0.27
CCN(CC)c1ccc2c(C)cc(=O)oc2c1 [coumarin 1]					reference quantum yield ΦR [6]: 0.73
c1ccc2ccccc2c1 [naphthalene]					reference quantum yield ΦR [6]: 0.23
